# Experimental data from patent US20100234358A1, “NERAMEXANE FOR THE TREATMENT OF NYSTAGMUS” (MERZ PHARMA GMBH & CO. KGAA, priority 2007, published 2010).
# Tests used:
# [1] = test system: acquired pendular nystagmus due to multiple sclerosis; conditions: in vivo; cited from earlier work
# [2] = test system: congenital idiopathic and acquired nystagmus; conditions: human, in vivo; cited from earlier work
# [3] = test system: congenital, idiopathic nystagmus (subgroup: acquired nystagmus in MS patients); assay: Double blind placebo controlled pilot trial of neramexane for treatment of nystagmus; type: in vivo, human; conditions: as compared to the placebo group, Neramexane mesylate up to 75 mg/d, 7 weeks
# Experimental: The objective of this pilot project is to conduct a clinical trial to assess the efficacy of neramexane as a treatment for nystagmus.
# The primary objective of this study is to investigate the safety and efficacy of Neramexane mesylate at daily doses of up to 75 mg in the treatment of congenital, idiopathic nystagmus in comparison to placebo. In addition, a subgroup of up to 20 MS patients suffering from acquired nystagmus are included and analyzed in an exploratory manner. In both patient groups, effects of treatment is assessed in comparison with placebo using a two-period cross-over design (two treatment periods of 7 weeks each, separated by a wash-out phase.
# The study is designed as a randomized, double-blind placebo-controlled, pilot study using a two-period cross-over design. Suitable patients are randomly assigned to one of the two treatment sequences of the cross-over trial (sequence A-B or B-A), i.e. double-blind treatment with Neramexane (A) and matching placebo tablets (B).
# Patients with congenital nystagmus (no pathology other than nystagmus; primary analysis population) or acquired nystagmus subsequent to MS (exploratory analysis only) • male or female outpatients aged between 18 and 80 years (inclusive) at screening; • patients with a metric visual acuity (VA) of 6/9 or lower 6/9); • for females of childbearing potential (last menses less than one year prior to enrollment): negative pregnancy test at baseline; either surgically sterile or use of a medically accepted method of contraception during the entire duration of the study; • congenital idiopathic nystagmus patients: uneventful gross neurological examination; • MS patients: diagnosis ‘multiple sclerosis’ as confirmed on the basis of McDonald criteria; • normal results of electroretinography (ERG) and visually evoked potential (VEP) testing; historical results may be accepted (period of acceptability to be defined) • patients having given written informed consent; • patient expected and willing to comply with the scheduled visits, dosing scheme (in particular placebo), and other requirements of the study; • results of normal physical examination, electrocardiogram (ECG), and safety laboratory at screening, or abnormal findings which are judged not clinically significant by the investigator; • Refraction prior to enrolment and, if required, prescription and receipt of new glasses or contact lenses prior to baseline visual acuity measurement
# Neramexane mesylate 25 mg modified release tablets and matching placebo tablets are administered as film coated tablets. […]
# Visual acuity (VA) is the standard by which the outcomes of drug therapy in nystagmus are measured in the framework of clinical trials. […]
# [4] = test system: N-methyl-D-aspartate (NMDA) receptors; conditions: cited from earlier work
smiles,measurement,setting,value
CC12CC3CC(C)(C1)CC(N)(C3)C2 [memantine],activity in acquired pendular nystagmus due to multiple sclerosis,[1],demonstrated activity
same,effectiveness in the treatment of congenital idiopathic and acquired nystagmus,[2],may be effective
"CC1(C)CC(C)(C)CC(C)(N)C1 [neramexane, 1-amino-1,3,3,5,5-pentamethylcyclohexane]",secondary outcome: expanded nystagmus acuity function,[3],improvement
same,secondary outcome: nystagmus intensity,[3],improvement
same,secondary outcome: reading ability,[3],improvement
same,"primary outcomes, such as visual acuity",[3]; two-period cross-over,improvement
same,NMDA-receptor affinity / mode of antagonism,[4],"low to moderate-affinity, non-competitive NMDA-receptor antagonist"
